According to BindingDB's records for doi:10.1111/cbdd.12822 (Wuhan University of Technology, 2016):

Tests used:
[1] = molecular target: T1, Amine oxidase [flavin-containing] A (Rattus norvegicus, UniProt P21396); assay: Monoamine Oxidase Assay; conditions: pH 7.4; 38 °C
T1 sequence (P21396 whole entry): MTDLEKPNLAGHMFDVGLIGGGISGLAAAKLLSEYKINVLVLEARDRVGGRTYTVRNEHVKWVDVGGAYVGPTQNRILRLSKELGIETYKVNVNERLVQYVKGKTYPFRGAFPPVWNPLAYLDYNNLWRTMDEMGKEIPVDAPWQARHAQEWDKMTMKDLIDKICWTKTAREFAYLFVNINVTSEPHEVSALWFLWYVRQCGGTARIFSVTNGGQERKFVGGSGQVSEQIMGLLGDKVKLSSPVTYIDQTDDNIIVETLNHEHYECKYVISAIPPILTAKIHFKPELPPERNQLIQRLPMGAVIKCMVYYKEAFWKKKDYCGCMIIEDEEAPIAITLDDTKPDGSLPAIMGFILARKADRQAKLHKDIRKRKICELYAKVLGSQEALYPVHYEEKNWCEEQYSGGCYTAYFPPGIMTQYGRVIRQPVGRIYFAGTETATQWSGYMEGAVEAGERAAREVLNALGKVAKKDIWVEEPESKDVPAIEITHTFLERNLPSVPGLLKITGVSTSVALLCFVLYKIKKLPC

[2] = molecular target: T2, Amine oxidase [flavin-containing] B (Rattus norvegicus, UniProt P19643); assay: Monoamine Oxidase Assay; conditions: pH 7.4; 38 °C
T2 sequence (P19643 whole entry): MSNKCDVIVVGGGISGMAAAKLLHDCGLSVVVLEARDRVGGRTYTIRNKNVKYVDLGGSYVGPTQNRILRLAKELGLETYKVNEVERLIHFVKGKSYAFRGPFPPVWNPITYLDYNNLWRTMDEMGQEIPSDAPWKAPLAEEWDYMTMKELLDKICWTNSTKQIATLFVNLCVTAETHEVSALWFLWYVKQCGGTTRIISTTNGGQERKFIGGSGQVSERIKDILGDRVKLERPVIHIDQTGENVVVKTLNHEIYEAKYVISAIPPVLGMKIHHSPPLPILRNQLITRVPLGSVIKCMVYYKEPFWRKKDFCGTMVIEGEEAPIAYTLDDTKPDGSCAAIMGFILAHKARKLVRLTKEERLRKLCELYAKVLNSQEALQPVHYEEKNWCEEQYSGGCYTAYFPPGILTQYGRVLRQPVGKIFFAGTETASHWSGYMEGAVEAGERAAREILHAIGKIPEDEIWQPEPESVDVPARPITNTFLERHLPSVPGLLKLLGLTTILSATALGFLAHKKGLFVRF

[3] = molecular target: Carboxylic ester hydrolase (Equus caballus, UniProt Q9N1N9); assay: AChE and BuChE Inhibition Assay; conditions: pH 8; 25 °C
Protocol: (§1) This spectrophotometric assay is based on the reaction of 5,5-dithio-bis(2-nitrobenzoic)acid (DTNB) with thiocholine to yield a colored product. Shimadzu (Kyoto, Japan) UV-1700 UV-vis spectrophotometer was used to record the measurements. The enzyme solutions were prepared at 2.5 units/mL concentrationin 1% gelatin solution. BChE/AChE and compound solutions (50 μL each) in 2% DMSO at 10^-1-10^-6 mM concentration were added to 3 mL phosphate buffer (pH 8 &plusnm; 0.1)followed by incubation for 5 min at 25 °C. The reaction was commenced by the addition of acetylthiocholine iodide (ATC) (10 μL) and DTNB (50 μL) to the enzyme-inhibitor mixture. […] The blank reading contained 10 μL substrate, 50 μL DTNB, 50 μL (2%) DMSO, and 3 mL buffer. The reaction was performed in triplicate.

Acetylcholinesterase = Acetylcholinesterase (Electrophorus electricus, UniProt O42275); assay: AChE and BuChE Inhibition Assay; conditions: pH 8; 25 °C
Protocol: as §1

Sequence of Carboxylic ester hydrolase (Q9N1N9 whole entry): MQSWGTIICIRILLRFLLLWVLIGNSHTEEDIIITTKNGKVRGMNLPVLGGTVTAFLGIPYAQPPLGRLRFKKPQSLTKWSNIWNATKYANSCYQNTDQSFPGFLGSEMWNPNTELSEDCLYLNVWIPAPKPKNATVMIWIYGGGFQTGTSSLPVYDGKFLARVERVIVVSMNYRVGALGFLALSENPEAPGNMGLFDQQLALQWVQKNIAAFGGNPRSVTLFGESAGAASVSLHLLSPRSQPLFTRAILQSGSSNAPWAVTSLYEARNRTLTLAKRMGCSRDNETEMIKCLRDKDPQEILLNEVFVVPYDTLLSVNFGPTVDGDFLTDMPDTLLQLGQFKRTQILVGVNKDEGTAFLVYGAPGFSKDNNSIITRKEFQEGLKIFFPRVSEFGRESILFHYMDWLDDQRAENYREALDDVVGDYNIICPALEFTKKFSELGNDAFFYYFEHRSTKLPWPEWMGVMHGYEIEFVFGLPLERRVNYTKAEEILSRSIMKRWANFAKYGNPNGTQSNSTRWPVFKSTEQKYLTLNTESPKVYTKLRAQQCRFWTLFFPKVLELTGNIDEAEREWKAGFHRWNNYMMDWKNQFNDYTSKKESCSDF
Sequence of Acetylcholinesterase (O42275 whole entry): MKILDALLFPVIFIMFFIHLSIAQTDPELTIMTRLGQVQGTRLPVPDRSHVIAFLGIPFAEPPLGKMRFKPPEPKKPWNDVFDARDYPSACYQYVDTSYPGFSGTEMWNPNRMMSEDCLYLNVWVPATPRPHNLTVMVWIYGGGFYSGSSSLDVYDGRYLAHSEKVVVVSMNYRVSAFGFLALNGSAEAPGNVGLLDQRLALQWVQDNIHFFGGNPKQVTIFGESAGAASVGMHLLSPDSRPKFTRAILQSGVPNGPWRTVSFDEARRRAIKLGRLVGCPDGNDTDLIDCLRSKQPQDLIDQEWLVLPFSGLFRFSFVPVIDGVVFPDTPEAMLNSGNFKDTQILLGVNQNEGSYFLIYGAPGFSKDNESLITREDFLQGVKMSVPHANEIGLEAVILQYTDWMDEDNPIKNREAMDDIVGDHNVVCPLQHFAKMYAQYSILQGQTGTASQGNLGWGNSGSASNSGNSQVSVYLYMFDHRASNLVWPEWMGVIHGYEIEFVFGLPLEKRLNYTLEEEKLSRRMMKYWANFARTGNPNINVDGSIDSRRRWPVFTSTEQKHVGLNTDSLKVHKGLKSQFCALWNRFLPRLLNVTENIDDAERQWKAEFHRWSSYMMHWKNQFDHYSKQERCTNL

| Compound | IC50 [1] [µM] | IC50 [2] [µM] | IC50 [3] [µM] | IC50 (Acetylcholinesterase) [µM] |
| --- | --- | --- | --- | --- |
| COc1cc(/C=C2\CC(C)c3ccccc3C2=O)c(Br)c(OC)c1OC (stereo unspecified) [2-(2-Bromo-3,4,5-trimethoxy-benzylidene)-4-methyl-tetralone (3f)] | 0.92 | 0.88 | 12.5 | 0.045 |
| COc1ccc(OC)c2c1CC/C(=C\c1cc(OC)c(OC)c(OC)c1Br)C2=O [2-(2-Bromo-3,4,5-trimethoxy-benzylidene)-5,8-dimethoxy-tetralone (3x)] | > 100 | > 100 | 9.8 | 0.27 |
| COc1ccc2c(c1)CC/C(=C\c1cc(OC)c(OC)c(OC)c1Br)C2=O [2-(2-Bromo-3,4,5-trimethoxy-benzylidene)-6-methoxy-tetralone (3o)] | 32.2 | 12.4 | 17.5 | 1.2 |
| COc1cc(/C=C2\CCc3ccc([N+](=O)[O-])cc3C2=O)c(Br)c(OC)c1OC [2-(2-Bromo-3,4,5-trimethoxy-benzylidene)-7-nitro-tetralone (3ag)] | 0.99 | 0.91 | 6.2 | 0.57 |
| COc1ccc(/C=C2\CCc3ccc([N+](=O)[O-])cc3C2=O)c(Cl)c1OC [2-(2-Chloro-3,4-dimethoxy-benzylidene)-7-nitro-tetralone (3af)] | 1.24 | 2.9 | 17.5 | 2.92 |
| COc1cc(/C=C2\CCc3ccccc3C2=O)c(Br)c(OC)c1OC [(2E)-2-[(2-bromo-3,4,5-trimethoxyphenyl)methylidene]-1,2,3,4-tetrahydronaphthalen-1-one (3c)] | 27.3 | 5.6 | > 100 | 12.4 |
| COc1cc(/C=C2\CCc3c(O)cccc3C2=O)c(Br)c(OC)c1OC [(2E)-2-[(2-bromo-3,4,5-trimethoxyphenyl)methylidene]-5-hydroxy-1,2,3,4-tetrahydronaphthalen-1-one (3i)] | > 100 | 37.2 | 76.9 | > 100 |
| COc1cccc2c1CC/C(=C\c1cc(OC)c(OC)c(OC)c1Br)C2=O [(2E)-2-[(2-bromo-3,4,5-trimethoxyphenyl)methylidene]-5-methoxy-1,2,3,4-tetrahydronaphthalen-1-one (3r)] | > 100 | 56 | 92.5 | 67.2 |
| COc1cc2c(cc1OC)C(=O)/C(=C/c1cc(OC)c(OC)c(OC)c1Br)CC2 [(2E)-2-[(2-bromo-3,4,5-trimethoxyphenyl)methylidene]-6,7-dimethoxy-1,2,3,4-tetrahydronaphthalen-1-one (3u)] | > 100 | 2.9 | > 100 | 4.5 |
| COc1cc(/C=C2\CCc3ccc(Cl)cc3C2=O)c(Br)c(OC)c1OC [(2E)-2-[(2-bromo-3,4,5-trimethoxyphenyl)methylidene]-7-chloro-1,2,3,4-tetrahydronaphthalen-1-one (3l)] | > 100 | > 100 | 48.9 | > 100 |
| COc1cc(/C=C2\CCc3ccc(F)cc3C2=O)c(Br)c(OC)c1OC [(2E)-2-[(2-bromo-3,4,5-trimethoxyphenyl)methylidene]-7-fluoro-1,2,3,4-tetrahydronaphthalen-1-one (3ad)] | 10.9 | 1.2 | 89.4 | > 100 |
| COc1ccc(/C=C2\CC(C)c3ccccc3C2=O)c(Cl)c1OC (stereo unspecified) [(2E)-2-[(2-chloro-3,4-dimethoxyphenyl)methylidene]-4-methyl-1,2,3,4-tetrahydronaphthalen-1-one (3e)] | 8.9 | 1.9 | 27.2 | 0.12 |
| COc1ccc(OC)c2c1CC/C(=C\c1ccc(OC)c(OC)c1Cl)C2=O [(2E)-2-[(2-chloro-3,4-dimethoxyphenyl)methylidene]-5,8-dimethoxy-1,2,3,4-tetrahydronaphthalen-1-one (3w)] | > 100 | > 100 | 24.7 | 2.4 |
| COc1ccc(/C=C2\CCc3c(O)cccc3C2=O)c(Cl)c1OC [(2E)-2-[(2-chloro-3,4-dimethoxyphenyl)methylidene]-5-hydroxy-1,2,3,4-tetrahydronaphthalen-1-one (3h)] | > 100 | 48.9 | > 100 | > 100 |
| COc1cccc2c1CC/C(=C\c1ccc(OC)c(OC)c1Cl)C2=O [(2E)-2-[(2-chloro-3,4-dimethoxyphenyl)methylidene]-5-methoxy-1,2,3,4-tetrahydronaphthalen-1-one (3q)] | > 100 | 63.7 | > 100 | 81.2 |
| COc1cc2c(cc1OC)C(=O)/C(=C/c1ccc(OC)c(OC)c1Cl)CC2 [(2E)-2-[(2-chloro-3,4-dimethoxyphenyl)methylidene]-6,7-dimethoxy-1,2,3,4-tetrahydronaphthalen-1-one (3t)] | > 100 | 5.4 | > 100 | 27.2 |
| COc1ccc2c(c1)CC/C(=C\c1ccc(OC)c(OC)c1Cl)C2=O [(2E)-2-[(2-chloro-3,4-dimethoxyphenyl)methylidene]-6-methoxy-1,2,3,4-tetrahydronaphthalen-1-one (3n)] | 47.2 | 19.2 | 22.9 | 14.6 |
| COc1ccc(/C=C2\CCc3ccc(F)cc3C2=O)c(Cl)c1OC [(2E)-2-[(2-chloro-3,4-dimethoxyphenyl)methylidene]-7-fluoro-1,2,3,4-tetrahydronaphthalen-1-one (3ac)] | 17.2 | 2.9 | > 100 | > 100 |
| COc1cccc(/C=C2\CC(C)c3ccccc3C2=O)c1Cl (stereo unspecified) [(2E)-2-[(2-chloro-3-methoxyphenyl)methylidene]-4-methyl-1,2,3,4-tetrahydronaphthalen-1-one (3d)] | 10.2 | 3.2 | 49.9 | 1.9 |
| COc1cccc(/C=C2\CCc3c(OC)ccc(OC)c3C2=O)c1Cl [(2E)-2-[(2-chloro-3-methoxyphenyl)methylidene]-5,8-dimethoxy-1,2,3,4-tetrahydronaphthalen-1-one (3v)] | > 100 | > 100 | > 100 | 13.2 |
| COc1cccc(/C=C2\CCc3c(O)cccc3C2=O)c1Cl [(2E)-2-[(2-chloro-3-methoxyphenyl)methylidene]-5-hydroxy-1,2,3,4-tetrahydronaphthalen-1-one (3g)] | > 100 | 56.4 | > 100 | > 100 |
| COc1cccc(/C=C2\CCc3c(OC)cccc3C2=O)c1Cl [(2E)-2-[(2-chloro-3-methoxyphenyl)methylidene]-5-methoxy-1,2,3,4-tetrahydronaphthalen-1-one (3p)] | > 100 | 78.9 | > 100 | 89.5 |
| COc1cc2c(cc1OC)C(=O)/C(=C/c1cccc(OC)c1Cl)CC2 [(2E)-2-[(2-chloro-3-methoxyphenyl)methylidene]-6,7-dimethoxy-1,2,3,4-tetrahydronaphthalen-1-one (3s)] | > 100 | 7.2 | > 100 | 29.5 |
| COc1ccc2c(c1)CC/C(=C\c1cccc(OC)c1Cl)C2=O [(2E)-2-[(2-chloro-3-methoxyphenyl)methylidene]-6-methoxy-1,2,3,4-tetrahydronaphthalen-1-one (3m)] | > 100 | > 100 | > 100 | 43.9 |
